Experimental data as given in publication PMC3467072 (Nucleic Acids Research, 2012).

What was measured:
Format in all cases: binding, Mycobacterium tuberculosis
Rv3066 mutant W80A = system: Rv3066 mutant W80A
Rv3066 mutant N112A = system: Rv3066 mutant N112A
Rv3066 mutant W131A = system: Rv3066 mutant W131A

CC[n+]1c(-c2ccccc2)c2cc(N)ccc2c2ccc(N)cc21 [ethidium, ethidium bromide]
three to four times: Decrease of affinity for ethidium binding, W80A versus wild-type (Rv3066 mutant W80A) | Decrease of affinity for ethidium binding, N112A versus wild-type (Rv3066 mutant N112A) | Decrease of affinity for ethidium binding, W131A versus wild-type (Rv3066 mutant W131A)
